Experimental data published in patent US7560436B2, “Methods of treating gastrointestinal inflammation” (The Regents of the University of California, priority 2005, dated 2009).

Columns and labels:
[1] = tested on: DSS-induced colitis; test: DSS-induced colitis in mice (disease activity index, colonic MPO activity, histological score, mortality); format: in vivo, mouse; conditions: for DAI (disease activity index) / HS (histological score) / MPO (U/g): 1.5% DSS
Description: In a previous study the concentration of DSS was identified that was required to induce a similar severity of colitis in the different mouse strains used in this study (Rachmilewitz et al. (2004) Gastroenterology 126:520-528). Mice on the B6 background were given 1.5% (w/v) DSS, mice on the 129/SvEv background were given 4% DSS and mice on the Balb/c background were given 3.5% DSS dissolved in sterile, distilled water ad libitum for 7 days (Rachmilewitz et al. (2004) supra). […] The disease activity index (DAI; the combined score of weight loss and bleeding) was determined as described (Rachmilewitz et al. (2002) Gastroenterology 122:1428-144110; and Rachmilewitz et al. (2004) supra). Briefly, scores are defined as follows: Loss in body weight: 0=no loss; 1=5% to 10%; 2=10% to 15%; 3=15% to 20%; 4=over 20%. Hemoccult: 0=no blood; 2=positive; 4=gross blood.
The colon tissues were longitudinally opened and a 50 mg portion was homogenized in hexadecyltrimethyl-ammonium bromide (0.5%) in 50 mmol/L phosphate buffer, pH6.0. The homogenate was sonicated for 10 seconds, freeze-thawed 3 times, and centrifuged for 15 minutes. An aliquot of the supernatant was taken for determination of enzyme activity as described (Rachmilewitz et al. (2002) supra; and Rachmilewitz et al. (2004) supra).
After 7 days of DSS administration, mice were killed and the entire colon was excised, longitudinally opened, rolled onto a wooden stick, fixed with Bouin's Solution (Sigma, St. Louis, Mo.), and embedded in paraffin. Tissue sections (5 μm) were prepared, deparaffinized, and stained with hematoxylin and eosin. Histological scoring was performed in a blinded fashion. Colonic epithelial damage was scored as follows: 0=normal; 1=hyper-proliferation, irregular crypts, and goblet cell loss; 2=mild to moderate crypt loss (10-50%); 3=severe crypt loss (50-90%); 4=complete crypt loss, surface epithelium intact; 5=small to medium sized ulcer (<10 crypt widths); 6=large ulcer (≧10 crypt widths). Infiltration with inflammatory cells was scored separately for mucosa (0=normal, 1=mild, 2=modest, 3=severe), submucosa (0=normal, 1=mild to modest, 2=severe), and muscle/serosa (0=normal, 1=moderate to severe). Scores for epithelial damage and inflammatory cell infiltration were added, resulting in a total scoring range of 0-12.

[2] = tested on: bone marrow-derived myeloid dendritic cells (MDC) from RAG−/− mice; test: DNA-PK inhibitor on CpG-ODN-induced cytokine production in MDC; format: cell-based, mouse; conditions: various concentrations of NU7026, with or without CpG-ODN
Protocol: Since deletion of the kinase domain of DNA-PKcs is responsible for the SCID phenotype, the role of DNA-PK in TLR9-mediated type-I IFN induction was investigated. To do so, bone marrow-derived myeloid dendritic cells (MDC) from RAG^−/− mice were incubated with various concentrations of NU7026, a DNA-PK inhibitor (Calbiochem, San Diego, Calif.), with or without CpG-ODN. […] In contrast, the activation of NF-κB, MAPK, IRF-3 and IRF-7 were similar in these cells (FIG. 2B), indicating a specific signaling blockade downstream to TLR9 in SCID but not in RAG^−/− BM-MDC.

[3] = RAG1−/− mice (B6), ODN 10 μg/animal s.c. once 2 h prior, day 7, mean±SEM
[4] = SCID mice (B6), ODN 10 μg/animal s.c. once 2 h prior, day 7, mean±SEM
[5] = Table 6: SCID mice (B6), 1000 U recombinant mIFN-β i.p. prior to and on days 2, 4, 6, day 7, mean±SEM

CpG-ODN-2: phosphodiester and phosphothioate-modified class A CpG-ODN, 5′-Ggtgcatcgatgca GGGGGg-3′; SEQ ID NO:05 (GGTGCATCGATGCAGGGGGG; DNA, linkages s1 o13 s5 (s phosphorothioate, o phosphodiester), methylation of C not given here)
DAI (disease activity index) [1, 3]: 1.9 ± 0.7^A
HS (histological score) [1, 3]: 5.0 ± 0.8^A
MPO (U/g) [1, 3]: 0.9 ± 0.2^A U/g
DAI (disease activity index) [1, 4]: 6.5 ± 0.6
HS (histological score) [1, 4]: 9.8 ± 0.3
MPO (U/g) [1, 4]: 1.3 ± 0.1 U/g

O=c1cc(N2CCOCC2)oc2c1ccc1ccccc12 [NU7026]
IFN-α/β production induced by CpG-ODN [2]: selectively inhibited IFN-α/β
IL-12 (p40) production induced by CpG-ODN [2]: without affecting IL-12 (p40) production

IFN-β: recombinant murine IFN-β from Chemicon International
disease activity and histological scores (in words) ([1]; DSS-treated SCID mice, recombinant mIFN-β): decreased the disease activity and the histological scores
DAI (disease activity index) [1, 5]: 4.6 ± 0.9^A
HS (histological score) [1, 5]: 6.8 ± 1.2^A
MPO (U/g) [1, 5]: 1.2 ± 0.1 U/g
